Data set [1] concerns the target Bovine spleen cathepsin B (Bos taurus, UniProt P07688). The data set is classed as biochemical.
The next data set relates to HeLa cells. To be noted: for cell death ratio: human.

Results on eight molecules are retold here after PMC7111485 (Bioorganic & Medicinal Chemistry, 2016).

`O=C(/C=C/c1ccccc1)N[C@H](COC(=O)c1ccccc1)C(=O)NC1CCCCC1` (single isomer, unassigned) [ent-3]: the “Inhibition (%)” value in data set [1] is on record as “no inhibition”. Further, in the data set with HeLa cells, the “cytotoxicity (in words)” value is “no cytotoxicity”.

In the case of `COc1ccccc1/C=C/C(=O)N[C@@H](COC(=O)c1ccccc1)C(=O)NC1CCCCC1` [7f, (S)-N-(E)-2′-Methoxy-3-phenylprop-2-enoicserine(benzoyl)cyclohexylamide], in data set [1], the “inhibitory activity relative to 3 (times)” value is reported as “about 10 times” and the “inhibitory mechanism (Lineweaver–Burk plot)” value was “competitive inhibition”.

For the molecule `COc1cc(/C=C/C(=O)N[C@@H](COC(=O)c2ccccc2)C(=O)NC2CCCCC2)cc(OC)c1` [7h, (S)-N-(E)-3′,5′-Dimethoxy-3-phenylprop-2-enoicserine(benzoyl)cyclohexylamide], the cell death ratio entry with HeLa cells was “less than 20%”.

Regarding `COc1cccc(/C=C/C(=O)N[C@@H](COC(=O)c2ccccc2)C(=O)NC2CCCCC2)c1` [7i, (S)-N-(E)-3′-Methoxy-3-phenylprop-2-enoicserine(benzoyl)cyclohexylamide], the cell death ratio entry with HeLa cells was “less than 20%”.

On to `O=C(/C=C/c1ccc(OC(=O)c2ccccc2)cc1)N[C@@H](COC(=O)c1ccccc1)C(=O)NC1CCCCC1` [7j, (S)-N-(E)-4′-Benzoyloxy-3-phenylprop-2-enoicserine(benzoyl)cyclohexylamine], for which the cell death ratio result with HeLa cells was “less than 20%”.

As to `COc1cc(/C=C/C(=O)N[C@@H](COC(=O)c2ccccc2)C(=O)NC2CCCCC2)cc(OC)c1OC` [7k, (S)-N-(E)-3′,4′,5′-Trimethoxy-3-phenylprop-2-enoicserine(benzoyl)cyclohexylamide], the cell death ratio entry in the data set on HeLa cells is “less than 20%”.

In the case of `O=C(/C=C/c1ccccc1)N[C@@H](COC(=O)c1ccccc1)C(=O)NC1CCCCC1` [compound 3, (S)-N-Cinnamoyl serine(benzoyl)cyclohexylamide], the cell death ratio result in the data set on HeLa cells is on record as “less than 20%”.

Consider `COc1cc(/C=C/C(=O)N[C@H](COC(=O)c2ccccc2)C(=O)NC2CCCCC2)cc(OC)c1OC` [ent-7k], for which, in the data set on HeLa cells, the “cytotoxicity (in words)” value is reported as “no cytotoxicity”.
